Test results taken from US20100204324A1, “Optically Active N-(Alpha-Mercaptopropionyl)Glycine” (priority 2007, published 2010).

Columns and labels:
Assay type in all cases: in vivo
[1] = tested on: mice with liver injury induced by acetamidophenol; assay: Liver injury in mice induced by acetamidophenol, drugs by intravenous injection: serum biochemical indicators and liver indexes; conditions: for Liver albumin / Liver total protein / GSH: 10% liver homogenate; for Liver albumin / Liver total protein / GSH / MDA / Liver coefficient / mice dead after modeling / Serum total protein: mice, drug 800 mg/kg iv; for GSH / MDA: liver; for Liver coefficient / Serum total protein: acetamidophenol 400 mg/kg ip, 24 hours after modeling; for mice dead after modeling: acetamidophenol model
Description: The animals were randomly divided into the following 5 groups of 10 animals according to weight: solvent control group, model group (acetamidophenol, 400 mg/kg, ml/kg, intraperitoneal injection), tiopronin group (MPG), R-(−)-N-(α-mercaptopropionyl)glycine group, and S-(+)-N-(α-mercaptopropionyl)glycine group. After fasting for 12 h, except the solvent control group and model group were given saline by intravenous injection, the other test groups were intravenously injected drugs, and then intraperitoneally injected 400/mg/kg of acetamidophenol immediately, to induce acute liver cell injury. The animals were fed with food at 6 hours after modeling, and then fasted for 16 hours; and at 24 hours after modeling, blood were sampled by eye ball removal, centrifuged, and collected for serum. ALT, and AST were determined following the method of the kit. 10% of liver homogenate was prepared, to measure GSH. The liver and spleen were taken at the same time, weighted, and calculated for organcoefficient.

[2] = tested on: rats with liver injury induced by CCl4; assay: Protection against liver injury in rats induced by carbon tetrachloride, drugs given intragastrically; conditions: CCl4 model, drug 450 mg/kg ig; for A/G: serum albumin/globulin; for Albumin / Globulin / Total protein: serum
Description: The animals were randomly divided into the following 5 groups of 10 animals according to weight: solvent control group, model group (50% CCl4, 2 ml/kg, intraperitoneal injection), tiopronin group (MPG), R-(−)-N-(α-mercaptopropionyl)glycine group, and S-(+)-N-(α-mercaptopropionyl)glycine group. Except the solvent control group was given olive oil by intraperitoneal injection, the other test groups were intragastrically administrated drugs for 4 days, once daily, intraperitoneally injected CCl4 once on the fifth day to induce acute liver cell injury, treated with drugs 30 min before modeling (except for the model control group), and then administrated drugs once 2 hours after modeling. Then, the animals were fasted for 16 h, blood was sampled from retrobulbar venous plexus 24 hours after injecting CCl4, centrifuged, and collected for serum, and ALT, AST, albumin were determined following the method of the kit. The left lobe of liver was taken to prepare 10% of liver homogenate and measure GSH and MDA contents.

[3] = Pharmacokinetic test in the body of a test animal, plasma drug concentration by HPLC-MS (interconversion of enantiomers); conditions: each time point after administration, GITC derivatization
Source text: It is found from pharmacokinetic experiment that, conversion of R-(−)-N-(α-mercaptopropionyl)glycine and S-(+)-N-(α-mercaptopropionyl)glycine to each other have not occurred in body. The specific experiment is a pharmacokinetic test in the body of a test animal, including determining the plasma drug concentration with high-performance liquid chromatography-mass spectrometry (HPLC-MS).
The process for treat a plasma sample to formulate an injected solution includes plasma acidification, extraction, and then derivatization, and is as follows: […]
ionization mode: electrospray ionization; selective ion detection; curved desolvation line (CDL); temperature: 200° C.-300° C., with 250° C. being preferred; heating block temperature: 150° C.-250° C., with 200° C. being preferred; CDL voltage: 20V-30V, with 25V being preferred; detection voltage: +1.2 kV-+1.8 kV, with +1.50 kV being preferred; flow rate of atomizing gas: 1.2 L/min-1.8 L/min, with 1.5 L/min being preferred; flow rate of drying gas: 1.5 L/min-2.5 L/min, with 2.0 L/min being preferred; detected ion: derivative of test drug [M+Na]+(m/z): 575.20; internal standard: derivative of N-isobutanoyl-D-cysteine (NIDC) [M+Na]+(m/z): 603.05; […]

[4] = listed as S—H—N-(α-mercaptopropionyl)glycine

SMILES	Liver albumin [1]	Liver total protein [1]	GSH ([1]; listed as tiopronin)	MDA [1]	MDA ([1]; listed as tiopronin)	Liver coefficient [1]	mice dead after modeling [1]	A/G [2]	A/G ([2]; listed as tiopronin)	Albumin [2]	Globulin [2]	Total protein [2]	Albumin ([2]; listed as tiopronin)	Globulin ([2]; listed as tiopronin)	Total protein ([2]; listed as tiopronin)	Serum total protein [1]	protection against liver injury in mice induced by acetamidophenol ([1]; overall comparison with tiopronin group, 800 mg/kg iv)	presence of the other enantiomer in plasma spectrogram after individual administration (conversion in body) [3]	GSH [1, 4]	MDA [1, 4]
CC(S)C(=O)NCC(=O)O (stereo not drawn) [Tiopronin, N-(α-mercaptopropionyl)glycine]	9.6 ± 1.1 mg/mL	15.7 ± 1.4 mg/mL	no such effects	362.4 ± 98.6 nmol/g wet weight	no such effects	5.804 ± 0.598 mg/g	4	0.825 ± 0.101	no obvious effect	26.8 ± 1.98 mg/mL	32.9 ± 4.79 mg/mL	59.8 ± 6.26 mg/mL	no obvious effect	no obvious effect	no obvious effect					
C[C@@H](S)C(=O)NCC(=O)O [R-(−)-N-(α-mercaptopropionyl)glycine]	9.2 ± 1.3 mg/mL	16.5 ± 1.7 mg/mL				5.816 ± 0.613 mg/g	no death									43.8 ± 7.4 mg/mL	superior to that in tiopronin group	not obviously detected		
CC(S)C(=O)NCC(=O)O (stereo not drawn) [S-(+)-N-(α-mercaptopropionyl)glycine]	9.1 ± 2.0 mg/mL	16.2 ± 2.9 mg/mL		440.0 ± 134.6 nmol/g wet weight		6.201 ± 0.567 mg/g				27.5 ± 1.44 mg/mL	37.2 ± 5.06 mg/mL	64.7 ± 6.40 mg/mL				43.7 ± 5.7 mg/mL		not obviously detected	no such effects	no such effects
